Data as given in ChEMBL document CHEMBL4507300 (2021).

Experiments:
[1] = target: Mitogen-activated protein kinase 14 (Homo sapiens) (UniProt Q16539); conditions: Compound concentration 1000.0 nM
[2] = target: Serine/threonine-protein kinase MARK2 (Homo sapiens) (UniProt Q7KZI7); conditions: Compound concentration 1000.0 nM
[3] = target: Serine/threonine-protein kinase B-raf (Homo sapiens) (UniProt P15056); conditions: Compound concentration 1000.0 nM
[4] = target: Hepatocyte growth factor receptor (Homo sapiens) (UniProt P08581); conditions: Compound concentration 1000.0 nM
[5] = target: Fibroblast growth factor receptor 3 (Homo sapiens) (UniProt P22607); conditions: Compound concentration 1000.0 nM
[6] = target: AP2-associated protein kinase 1 (Homo sapiens) (UniProt Q2M2I8); conditions: Compound concentration 1000.0 nM
[7] = target: Serine/threonine-protein kinase RIO2 (Homo sapiens) (UniProt Q9BVS4); conditions: Compound concentration 1000.0 nM
[8] = target: Inhibitor of nuclear factor kappa-B kinase subunit alpha (Homo sapiens) (UniProt O15111); conditions: Compound concentration 1000.0 nM
[9] = target: Serine/threonine-protein kinase ULK1 (Homo sapiens) (UniProt O75385); conditions: Compound concentration 1000.0 nM
[10] = target: Serine/threonine-protein kinase NIM1 (Homo sapiens) (UniProt Q8IY84); conditions: Compound concentration 1000.0 nM
[11] = target: Serine/threonine-protein kinase TNNI3K (Homo sapiens) (UniProt Q59H18); conditions: Compound concentration 1000.0 nM
[12] = target: RAF proto-oncogene serine/threonine-protein kinase (Homo sapiens) (UniProt P04049); conditions: Compound concentration 1000.0 nM
[13] = test system: Receptor-type tyrosine-protein kinase FLT3 (Homo sapiens), P36888 [K663Q]; conditions: Compound concentration 1000.0 nM
[14] = target: Casein kinase II subunit alpha (Homo sapiens) (UniProt P68400); conditions: Compound concentration 1000.0 nM
[15] = target: Beta-adrenergic receptor kinase 1 (Homo sapiens) (UniProt P25098); conditions: Compound concentration 1000.0 nM
[16] = target: Serine/threonine-protein kinase tousled-like 1 (Homo sapiens) (UniProt Q9UKI8); conditions: Compound concentration 1000.0 nM
[17] = target: Interleukin-1 receptor-associated kinase 1 (Homo sapiens) (UniProt P51617); conditions: Compound concentration 1000.0 nM
[18] = test system: ALK tyrosine kinase receptor (Homo sapiens), Q9UM73 [L1196M]; conditions: Compound concentration 1000.0 nM
[19] = target: Sigma intracellular receptor 2 (Homo sapiens, UniProt Q5BJF2); experiment: GPCRScan assay: inhibition of Sigma 2; design: radioligand conc. used [nm] 5.0, parental cells HEKT
[20] = target: Serine/threonine-protein kinase Chk2 (Homo sapiens) (UniProt O96017); conditions: Compound concentration 1000.0 nM
[21] = target: Homeodomain-interacting protein kinase 3 (Homo sapiens) (UniProt Q9H422); conditions: Compound concentration 1000.0 nM
[22] = target: MAP kinase-interacting serine/threonine-protein kinase 1 (Homo sapiens) (UniProt Q9BUB5); conditions: Compound concentration 1000.0 nM
[23] = target: Serine/threonine-protein kinase TAO2 (Homo sapiens) (UniProt Q9UL54); conditions: Compound concentration 1000.0 nM
[24] = test system: Mast/stem cell growth factor receptor Kit (Homo sapiens), P10721 [D816H]; conditions: Compound concentration 1000.0 nM
[25] = target: Proto-oncogene tyrosine-protein kinase Src (Homo sapiens) (UniProt P12931); conditions: Compound concentration 1000.0 nM
[26] = target: Serine/threonine-protein kinase MRCK alpha (Homo sapiens) (UniProt Q5VT25); conditions: Compound concentration 1000.0 nM
[27] = target: Dual serine/threonine and tyrosine protein kinase (Homo sapiens) (UniProt Q6XUX3); conditions: Compound concentration 1000.0 nM
[28] = target: Receptor tyrosine-protein kinase erbB-2 (Homo sapiens) (UniProt P04626); conditions: Compound concentration 1000.0 nM
[29] = target: Ribosomal protein S6 kinase alpha-1 (Homo sapiens) (UniProt Q15418); conditions: Compound concentration 1000.0 nM
[30] = test system: Tyrosine-protein kinase ABL1 (Homo sapiens), P00519 [Y253F]; conditions: Compound concentration 1000.0 nM
[31] = target: Vascular endothelial growth factor receptor 1 (Homo sapiens) (UniProt P17948); conditions: Compound concentration 1000.0 nM
[32] = target: Citron Rho-interacting kinase (Homo sapiens) (UniProt O14578); conditions: Compound concentration 1000.0 nM
[33] = target: Cyclin-dependent kinase 11A (Homo sapiens) (UniProt Q9UQ88); conditions: Compound concentration 1000.0 nM
[34] = target: Calcium/calmodulin-dependent protein kinase type II subunit delta (Homo sapiens) (UniProt Q13557); conditions: Compound concentration 1000.0 nM
[35] = test system: Phosphatidylinositol 4,5-bisphosphate 3-kinase catalytic subunit alpha isoform (Homo sapiens), P42336 [H1047L]; conditions: Compound concentration 1000.0 nM
[36] = target: Ephrin type-A receptor 4 (Homo sapiens) (UniProt P54764); conditions: Compound concentration 1000.0 nM
[37] = target: Activin receptor type-2B (Homo sapiens) (UniProt Q13705); conditions: Compound concentration 1000.0 nM
[38] = target: Beta-3 adrenergic receptor (Homo sapiens) (UniProt P13945); conditions: Compound concentration 10.0 uM
[39] = test system: Hepatocyte growth factor receptor (Homo sapiens), P08581 [M1250T]; conditions: Compound concentration 1000.0 nM
[40] = target: D(2) dopamine receptor (Homo sapiens) (UniProt P14416); conditions: Compound concentration 10.0 uM
[41] = target: Aurora kinase A (Homo sapiens) (UniProt O14965); conditions: Compound concentration 1000.0 nM
[42] = target: Mitogen-activated protein kinase 1 (Homo sapiens) (UniProt P28482); conditions: Compound concentration 1000.0 nM
[43] = target: Serine/threonine-protein kinase D3 (Homo sapiens) (UniProt O94806); conditions: Compound concentration 1000.0 nM
[44] = target: Casein kinase I isoform delta (Homo sapiens) (UniProt P48730); conditions: Compound concentration 1000.0 nM
[45] = target: Mitogen-activated protein kinase kinase kinase kinase 5 (Homo sapiens) (UniProt Q9Y4K4); conditions: Compound concentration 1000.0 nM

Sequence of Sigma intracellular receptor 2 (Q5BJF2 whole entry): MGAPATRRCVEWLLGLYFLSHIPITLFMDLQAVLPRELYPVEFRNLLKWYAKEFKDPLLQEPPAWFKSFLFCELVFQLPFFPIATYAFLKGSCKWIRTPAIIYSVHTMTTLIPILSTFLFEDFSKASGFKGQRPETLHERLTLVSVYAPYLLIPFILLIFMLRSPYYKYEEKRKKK
Sequence of Activin receptor type-2B (Homo sapiens) (Q13705 whole entry): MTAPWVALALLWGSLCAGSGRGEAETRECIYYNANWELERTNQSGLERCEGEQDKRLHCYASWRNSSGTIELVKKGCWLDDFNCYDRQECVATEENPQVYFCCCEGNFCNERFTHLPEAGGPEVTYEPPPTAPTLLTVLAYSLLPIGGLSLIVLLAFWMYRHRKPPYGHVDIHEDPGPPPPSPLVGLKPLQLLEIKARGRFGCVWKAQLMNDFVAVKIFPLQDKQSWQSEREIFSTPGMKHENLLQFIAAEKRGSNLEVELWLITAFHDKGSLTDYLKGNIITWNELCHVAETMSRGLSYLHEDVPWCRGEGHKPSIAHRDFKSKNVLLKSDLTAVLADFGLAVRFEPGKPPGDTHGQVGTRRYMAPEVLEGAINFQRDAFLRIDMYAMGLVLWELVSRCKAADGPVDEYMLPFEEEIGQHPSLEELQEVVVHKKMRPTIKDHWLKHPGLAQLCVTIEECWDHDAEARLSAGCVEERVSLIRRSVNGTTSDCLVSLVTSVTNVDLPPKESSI
Sequence of Mast/stem cell growth factor receptor Kit (Homo sapiens), P10721 [D816H] (P10721 whole entry D816H): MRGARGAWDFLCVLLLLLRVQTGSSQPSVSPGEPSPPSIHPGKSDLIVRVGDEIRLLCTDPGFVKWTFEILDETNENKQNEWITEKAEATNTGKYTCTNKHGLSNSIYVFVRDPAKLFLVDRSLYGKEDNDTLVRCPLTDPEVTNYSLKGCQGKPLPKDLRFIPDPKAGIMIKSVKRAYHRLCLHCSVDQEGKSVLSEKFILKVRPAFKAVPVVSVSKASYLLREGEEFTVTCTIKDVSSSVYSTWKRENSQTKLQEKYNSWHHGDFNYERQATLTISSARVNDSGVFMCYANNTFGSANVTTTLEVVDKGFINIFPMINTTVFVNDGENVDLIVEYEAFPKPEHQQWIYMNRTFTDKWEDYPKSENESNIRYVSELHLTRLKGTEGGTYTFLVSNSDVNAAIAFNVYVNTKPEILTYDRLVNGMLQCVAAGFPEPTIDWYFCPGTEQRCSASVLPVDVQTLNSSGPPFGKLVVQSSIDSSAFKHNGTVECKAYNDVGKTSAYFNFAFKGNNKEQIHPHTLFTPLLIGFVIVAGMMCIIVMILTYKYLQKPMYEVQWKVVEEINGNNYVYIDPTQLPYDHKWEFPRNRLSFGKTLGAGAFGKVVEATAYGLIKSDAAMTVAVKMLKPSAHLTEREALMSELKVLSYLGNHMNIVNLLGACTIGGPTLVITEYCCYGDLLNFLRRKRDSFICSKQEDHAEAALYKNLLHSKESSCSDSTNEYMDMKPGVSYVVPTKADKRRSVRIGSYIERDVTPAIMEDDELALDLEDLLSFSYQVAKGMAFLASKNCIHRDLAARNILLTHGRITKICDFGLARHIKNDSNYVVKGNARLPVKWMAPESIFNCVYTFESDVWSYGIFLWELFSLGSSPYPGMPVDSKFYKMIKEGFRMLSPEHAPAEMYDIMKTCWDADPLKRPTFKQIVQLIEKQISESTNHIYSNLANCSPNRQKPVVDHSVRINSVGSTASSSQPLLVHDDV
Sequence of Fibroblast growth factor receptor 3 (Homo sapiens) (P22607 23-806 limits assumed): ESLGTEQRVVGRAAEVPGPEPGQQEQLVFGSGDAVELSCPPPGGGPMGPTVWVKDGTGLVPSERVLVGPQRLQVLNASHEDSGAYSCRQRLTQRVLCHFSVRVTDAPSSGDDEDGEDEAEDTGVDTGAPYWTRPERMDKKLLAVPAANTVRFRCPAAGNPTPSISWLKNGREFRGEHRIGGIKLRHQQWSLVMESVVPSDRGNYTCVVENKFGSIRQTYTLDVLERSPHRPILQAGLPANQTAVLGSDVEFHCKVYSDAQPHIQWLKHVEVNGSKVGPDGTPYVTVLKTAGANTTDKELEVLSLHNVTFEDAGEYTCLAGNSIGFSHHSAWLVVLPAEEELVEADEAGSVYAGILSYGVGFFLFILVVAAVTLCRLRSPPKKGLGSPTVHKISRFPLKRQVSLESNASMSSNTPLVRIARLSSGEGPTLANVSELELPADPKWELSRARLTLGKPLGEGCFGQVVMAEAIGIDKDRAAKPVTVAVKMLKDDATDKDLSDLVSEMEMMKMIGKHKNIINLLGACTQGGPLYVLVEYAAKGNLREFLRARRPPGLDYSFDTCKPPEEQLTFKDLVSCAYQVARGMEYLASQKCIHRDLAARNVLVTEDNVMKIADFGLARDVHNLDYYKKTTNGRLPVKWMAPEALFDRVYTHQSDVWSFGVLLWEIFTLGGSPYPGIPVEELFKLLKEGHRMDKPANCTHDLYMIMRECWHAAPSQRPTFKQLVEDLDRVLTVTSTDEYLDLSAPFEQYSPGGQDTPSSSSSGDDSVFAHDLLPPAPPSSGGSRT
Sequence of Homeodomain-interacting protein kinase 3 (Homo sapiens) (Q9H422 whole entry, looked up): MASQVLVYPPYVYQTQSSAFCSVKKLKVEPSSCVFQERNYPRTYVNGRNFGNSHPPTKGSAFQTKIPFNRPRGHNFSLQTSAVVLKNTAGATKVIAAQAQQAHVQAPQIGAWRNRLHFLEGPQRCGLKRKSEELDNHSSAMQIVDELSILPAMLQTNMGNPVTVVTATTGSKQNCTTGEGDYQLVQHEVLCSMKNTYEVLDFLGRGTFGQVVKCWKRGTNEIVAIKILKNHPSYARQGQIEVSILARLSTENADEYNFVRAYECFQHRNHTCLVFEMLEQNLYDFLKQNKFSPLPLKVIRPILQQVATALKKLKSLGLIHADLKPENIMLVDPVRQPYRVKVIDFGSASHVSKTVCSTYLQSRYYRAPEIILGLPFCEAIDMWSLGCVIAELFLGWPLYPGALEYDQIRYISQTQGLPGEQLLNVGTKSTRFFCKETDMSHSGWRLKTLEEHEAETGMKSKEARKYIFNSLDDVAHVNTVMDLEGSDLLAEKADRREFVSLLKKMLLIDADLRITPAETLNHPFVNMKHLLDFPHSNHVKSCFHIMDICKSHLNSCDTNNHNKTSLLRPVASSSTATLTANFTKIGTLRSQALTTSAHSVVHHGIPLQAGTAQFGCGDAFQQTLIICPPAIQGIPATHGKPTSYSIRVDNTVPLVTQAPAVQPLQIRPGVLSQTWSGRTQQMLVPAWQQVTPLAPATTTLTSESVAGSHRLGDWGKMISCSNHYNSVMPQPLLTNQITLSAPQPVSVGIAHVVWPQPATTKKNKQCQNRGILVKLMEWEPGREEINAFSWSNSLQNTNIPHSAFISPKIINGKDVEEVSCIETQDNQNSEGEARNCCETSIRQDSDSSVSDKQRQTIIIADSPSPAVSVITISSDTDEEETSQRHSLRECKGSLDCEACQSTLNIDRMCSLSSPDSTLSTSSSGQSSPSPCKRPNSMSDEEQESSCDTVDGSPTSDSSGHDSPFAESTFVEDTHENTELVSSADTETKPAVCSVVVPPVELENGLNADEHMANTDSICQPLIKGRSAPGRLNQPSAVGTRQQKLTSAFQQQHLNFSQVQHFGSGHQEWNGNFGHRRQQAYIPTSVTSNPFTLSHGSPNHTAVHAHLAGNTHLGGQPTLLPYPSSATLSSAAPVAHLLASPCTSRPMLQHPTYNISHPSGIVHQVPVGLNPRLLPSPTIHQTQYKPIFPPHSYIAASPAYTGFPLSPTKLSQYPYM
Sequence of Serine/threonine-protein kinase D3 (Homo sapiens) (O94806 whole entry, canonical isoform): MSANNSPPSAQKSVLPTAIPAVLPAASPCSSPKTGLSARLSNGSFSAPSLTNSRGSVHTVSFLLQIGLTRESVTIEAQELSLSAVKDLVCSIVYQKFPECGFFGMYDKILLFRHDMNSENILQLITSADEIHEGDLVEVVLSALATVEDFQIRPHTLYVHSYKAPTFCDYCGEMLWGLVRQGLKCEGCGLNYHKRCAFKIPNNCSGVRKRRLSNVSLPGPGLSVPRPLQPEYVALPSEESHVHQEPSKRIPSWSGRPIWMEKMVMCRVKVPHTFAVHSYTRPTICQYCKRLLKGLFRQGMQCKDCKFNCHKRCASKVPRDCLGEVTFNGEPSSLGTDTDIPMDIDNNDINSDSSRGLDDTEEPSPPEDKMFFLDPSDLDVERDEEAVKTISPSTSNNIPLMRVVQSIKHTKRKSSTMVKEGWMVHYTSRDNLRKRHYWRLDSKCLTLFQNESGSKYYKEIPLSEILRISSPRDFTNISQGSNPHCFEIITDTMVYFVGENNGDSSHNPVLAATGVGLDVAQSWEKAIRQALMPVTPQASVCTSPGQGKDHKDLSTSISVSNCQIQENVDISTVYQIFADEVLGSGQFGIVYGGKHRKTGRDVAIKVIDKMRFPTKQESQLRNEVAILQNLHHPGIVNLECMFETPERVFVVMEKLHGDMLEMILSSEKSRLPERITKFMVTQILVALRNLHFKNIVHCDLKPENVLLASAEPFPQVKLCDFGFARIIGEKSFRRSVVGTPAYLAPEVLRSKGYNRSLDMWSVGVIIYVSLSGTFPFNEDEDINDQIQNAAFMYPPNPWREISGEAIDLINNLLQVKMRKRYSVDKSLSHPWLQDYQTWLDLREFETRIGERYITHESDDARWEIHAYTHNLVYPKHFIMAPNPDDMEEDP
Sequence of Aurora kinase A (Homo sapiens) (O14965 whole entry): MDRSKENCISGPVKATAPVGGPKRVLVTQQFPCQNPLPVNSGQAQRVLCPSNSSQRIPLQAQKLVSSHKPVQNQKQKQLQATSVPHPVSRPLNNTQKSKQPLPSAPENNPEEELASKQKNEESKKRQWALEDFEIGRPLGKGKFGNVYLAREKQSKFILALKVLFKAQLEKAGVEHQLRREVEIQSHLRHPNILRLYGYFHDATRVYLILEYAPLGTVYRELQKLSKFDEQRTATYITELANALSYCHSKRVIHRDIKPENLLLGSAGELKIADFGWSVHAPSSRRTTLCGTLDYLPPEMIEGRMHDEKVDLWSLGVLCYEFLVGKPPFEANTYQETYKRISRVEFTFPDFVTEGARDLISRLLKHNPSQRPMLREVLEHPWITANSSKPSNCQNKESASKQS

Structure (SMILES): COc1cccc(CNC(=O)c2nc3scc(COCc4ccc(C(=O)O)cc4)c3c(=O)[nH]2)c1 [T-26c]
- residual activity [1]: 96.7%
- residual activity [2]: 100%
- residual activity [3]: 72.8%
- residual activity [4]: 100%
- residual activity [5]: 100%
- residual activity [6]: 100%
- residual activity [7]: 72.4%
- residual activity [8]: 64.8%
- residual activity [9]: 74%
- residual activity [10]: 100%
- residual activity [11]: 95.5%
- residual activity [12]: 85.6%
- residual activity [13]: 93%
- residual activity [14]: 90.7%
- residual activity [15]: 50.1%
- residual activity [16]: 100%
- residual activity [17]: 75.6%
- residual activity [18]: 94.8%
- Ki ([19]; read-out: Ki): 4.55 µM
- Ki ([19]; read-out: pKi (converted)): 3.98 µM
- residual activity [20]: 92%
- residual activity [21]: 73.7%
- residual activity [22]: 83.1%
- residual activity [23]: 59.8%
- residual activity [24]: 59%
- residual activity [25]: 100%
- residual activity [26]: 100%
- residual activity [27]: 54.5%
- residual activity [28]: 97.2%
- residual activity [29]: 100%
- residual activity [30]: 84.6%
- residual activity [31]: 93.9%
- residual activity [32]: 100%
- residual activity [33]: 99.2%
- residual activity [34]: 100%
- residual activity [35]: 100%
- residual activity [36]: 91.1%
- residual activity [37]: 100%
- inhibition [38]: 7.44%
- residual activity [39]: 98%
- inhibition [40]: 7.09%
- residual activity [41]: 80.9%
- residual activity [42]: 100%
- residual activity [43]: 100%
- residual activity [44]: 100%
- residual activity [45]: 87.3%
